Data on one compound can be found in US20220098197A1, “SALTS OF HETEROCYCLIC COMPOUND AND USE THEREOF” (priority 2019, published 2022).

In assay [1] the test system is neutrophils. Description: PGD2-induced neutrophils migration, Boyden chamber assay (Example 1). To be noted: pretreatment CT-NA 1 and 10 μM (p<0.01) or OC459; PGD2 1 μM; 4 hrs. In kind it is cell-based, mice. The method, then: The mice were intragastrically administered glycogen (1.5%) at the dose range of 20 ml/kg of body weight. 4 hrs later, the mice were euthanized to isolate neutrophils from the peritoneal lavage. The effect of CT-NA on neutrophils migration was detected by using the Boyden chamber assay kit (3 μm pore size). PGD2 was used as a chemoattractant because the activated PGD2/CRTH2 receptors promoted the migration of neutrophils. Initially, the isolated neutrophils (4×10^5) were diluted in 100 μL HBSS and allowed to migrate toward PGD2 (0.1, 1 and 10 μM) for 4 hrs to find out the suitable PGD2 concentration. Then, the isolated neutrophils (4×10^5) were pretreated with CT-NA (1 and 10 μM), and their migration to PGD2 (1 μM) was evaluated by counting the migrated neutrophils. Moreover, another potent CRTH2 inhibitor OC459 was used to countercheck the outcomes of CT-NA.

Assay [2] concerns neutrophils. Kind of assay: PGD2-induced neutrophils migration in vitro, Boyden chamber (Example 2). In kind it is cell-based, mice. To be noted: pretreatment CT-NA 1 μM or 10 μM, OC459 10 μM; 4 hrs; P<0.01. As to the method: The method for isolating neutrophils and testing effect of CT-NA on neutrophils migration was briefly described as follows. 1.5% glycogen was injected intragastrically into mice at a dose of 20 ml/kg body weight. 4 hrs later, the mice were euthanized to isolate neutrophils from the peritoneal lavage. Effect of CT-NA on the migration of neutrophils was detected using the Boyden chamber assay kit (3 um pore size, Billerica, Mass.). PGD2 was used as a chemoattractant because the activated PGD2/CRTH2 receptors promoted the neutrophils migration. Firstly, the isolated neutrophils were inoculated at 4×10^5 cells/ml into the upper side of well of the Boyden chamber, and the lower chamber contained different concentrations of PGD2 (0.1, 1 and 10 μM), and the neutrophils were allowed to migrate towards PGD2 for 4 hrs at 37° C. in order to find out the suitable PGD2 concentration. After evaluation of the suitable PGD2 concentration, the migration of neutrophils pretreated with CT-NA (1 and 10 μM) and OC459 (10 μM), another effective CRTH2 inhibitor, toward PGD2 (1 μM) was assessed for 4 hrs.

Turning to `Cc1c(Cc2ccc3ccccc3n2)c2cc(F)ccc2n1CC(=O)O` [OC459, reference compound], the PGD2-induced neutrophils migration entry in assay [1] is given as “inhibited”. Also, in assay [2], the “neutrophils migration induced by 1 μM PGD2” value was “significantly reduced”.
